Measured values taken from article PMC10060280, “The influence of cyclooxygenase inhibitors on kynurenic acid production in rat kidney: a novel path for kidney protection?” (Pharmacological Reports, 2023).
Structures can show the parent of a compound that is named as a salt. Where two headings read alike, the source gives them in different places. Each block holds one molecule with its values, some of them ahead of it.

Columns and labels:
[1] = molecular target: T1, KAT II (Rattus norvegicus, UniProt Q64602); assay: KAT II activity in rat kidney in vitro; type: biochemical; conditions: 2 µM L-KYN; for IC50: pH 7.0, 2 mM glutamine, read-out: IC50 of KAT II inhibition
T1 construct: kidneys were homogenized in dialysate buffer (1:9; w/v); from tissue; host or cells: rat kidney (dialyzed supernatant of homogenate)
Procedure: (§1) KAT I and KAT II activity in rat kidneys in vitro was analyzed based on procedures previously presented in a study by Gramsbergen et al.. […] The homogenate was centrifuged (15,133×g, 15 min) and then collected supernatant was dialyzed against 4 L of the dialysate buffer for 12 h at 8 °C with the use of cellulose membrane dialysis tubing. […] L-KYN concentration used in this analysis was equal to plasma KYN concentration, as reported by […] et al., and was sufficient to obtain appropriate enzymatic activity. The optimal pH was set at 9.5 and 7.0 for KAT I or KAT II activity analysis, respectively. Glutamine (2 mM), a KAT I inhibitor, was added to samples to measure KAT II's activity. The reaction was terminated by moving all samples into the ice-cold bath. Finally, all samples were centrifuged and analyzed by HPLC, as described in the previous section. […] To analyze KAT's activity, kidneys from 14 rats were used. Presented data are shown as mean ± standard deviation (SD). The one-way analysis of variance (one-way ANOVA) followed by Tukey's multiple comparison test was applied to analyze differences between tested COX inhibitors. The half-maximal inhibitory concentrations values (IC50) were assessed by fitting the experimental data to a four-parameter logistic equation. Statistical analyses were done with the use of GraphPad Prism 6. Values of p < 0.05 were considered to be statistically significant.

[2] = molecular target: T2, KAT I (Rattus norvegicus, UniProt Q08415); assay: KAT I activity in rat kidney in vitro; type: biochemical; conditions: 2 µM L-KYN; for IC50: read-out: IC50 of KAT I inhibition; for effect on KAT I activity: 1 μM-1 mM drug
T2 construct: kidneys were homogenized in dialysate buffer (1:9; w/v); from tissue; host or cells: rat kidney (dialyzed supernatant of homogenate)
T2 sequence (Q08415 1-423): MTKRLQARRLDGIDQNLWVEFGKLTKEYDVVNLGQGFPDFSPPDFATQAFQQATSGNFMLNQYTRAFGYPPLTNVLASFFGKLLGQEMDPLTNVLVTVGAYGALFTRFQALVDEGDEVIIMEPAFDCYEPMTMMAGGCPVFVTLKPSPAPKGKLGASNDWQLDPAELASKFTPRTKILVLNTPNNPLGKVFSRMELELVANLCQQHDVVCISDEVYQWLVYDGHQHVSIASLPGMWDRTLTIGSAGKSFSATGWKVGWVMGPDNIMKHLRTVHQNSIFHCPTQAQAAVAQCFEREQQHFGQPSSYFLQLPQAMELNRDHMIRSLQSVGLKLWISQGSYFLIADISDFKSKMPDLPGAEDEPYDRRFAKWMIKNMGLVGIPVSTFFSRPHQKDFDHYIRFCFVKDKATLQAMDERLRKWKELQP
Procedure: as §1

[3] = tested on: KYNA content in the rat brain; conditions: cited from earlier work; for KYNA content in the rat brain: after drug administration
[4] = tested on: KYNA production in rat kidney; assay: KYNA synthesis in rat kidney homogenate in vitro; type: biochemical; conditions: 10 μM L-KYN; for IC50: 2 h, 37 °C, read-out: IC50 of KYNA production inhibition
Procedure: In the first step, after the animals were decapitated, rat kidneys were harvested and immediately put on ice. Afterward whole kidneys were weighed and homogenized in prepared oxygenated Krebs–Ringer buffer at pH 7.4 (1:4; w/v). 100 µL of kidney homogenate was put into test tubes, pre-filled with oxygenated Krebs–Ringer buffer (containing 800 μL in every tube). […] At least six independent kidney samples were used for each experiment in this part of the study. Control samples, instead of the drug solution, contained an equal volume of a drug solvent (50 µL of DMSO or water). The reaction was stopped by adding 1 N HCl (100 μL per sample) on ice. […] Tissues from 14 animals were used in this part of the study. Presented data are shown as mean ± standard deviation (SD). The one-way analysis of variance (one-way ANOVA) followed by Tukey’s multiple comparison test was applied to analyze differences between tested COX inhibitors. The half-maximal inhibitory concentrations values (IC50) were assessed by fitting the experimental data to a four-parameter logistic equation. Statistical analyses were done with the use of GraphPad Prism 6. Values of p < 0.05 were considered to be statistically significant.

[5] = tested on: animal models of ADPKD; conditions: animal model of ADPKD, cited from earlier work
[6] = tested on: serum KYNA concentration; design: method as in PMID 36271950; conditions: 20 healthy volunteers, acute administration, 5 h after drug administration; cited from earlier work
[7] = pH 9.5, highest concentration tested 1 mM
[8] = highest concentration tested 1 mM

T1 sequence (Q64602 30-425): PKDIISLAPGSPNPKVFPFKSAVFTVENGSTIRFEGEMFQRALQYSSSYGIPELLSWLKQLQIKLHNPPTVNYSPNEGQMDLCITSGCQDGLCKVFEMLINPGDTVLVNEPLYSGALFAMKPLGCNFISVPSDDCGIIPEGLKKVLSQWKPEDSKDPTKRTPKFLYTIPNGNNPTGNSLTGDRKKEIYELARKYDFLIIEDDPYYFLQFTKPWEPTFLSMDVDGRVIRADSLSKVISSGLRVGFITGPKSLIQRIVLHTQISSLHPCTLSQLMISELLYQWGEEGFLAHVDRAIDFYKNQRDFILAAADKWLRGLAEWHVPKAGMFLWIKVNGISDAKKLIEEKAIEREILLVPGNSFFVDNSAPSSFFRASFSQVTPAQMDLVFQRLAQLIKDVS

SMILES: COc1ccc2c(c1)c(CC(=O)O)c(C)n2C(=O)c1ccc(Cl)cc1 [indomethacin]
- IC50 ([1]; 2 h, 37 °C): 420 µM
- IC50 ([2]; pH 9.5, 2 h, 37 °C): 503 µM
- KYNA content in the rat brain [3]: elevated KYNA levels
- IC50 [4]: 246 µM

SMILES: Cc1ccc(-c2cc(C(F)(F)F)nn2-c2ccc(S(N)(=O)=O)cc2)cc1 [celecoxib]
- cysts volume ([5]; selective COX-2 blockade): decrease cysts volume

SMILES: CC(=O)Oc1ccccc1C(=O)O [acetylsalicylic acid]
- IC50 [1, 8]: > 1000 µM
- effect on KAT I activity [2]: did not affect the activity of KAT I
- IC50 [4, 8]: > 1000 µM

SMILES: CC(C)Cc1ccc(C(C)C(=O)O)cc1 (stereo not shown) [ibuprofen]
- IC50 [1, 8]: > 1000 µM
- effect on KAT I activity [2]: did not affect the activity of KAT I
- IC50 [4, 8]: > 1000 µM
- serum KYNA concentration [6]: increases serum KYNA concentration

SMILES: CC1=C(CC(=O)O)c2cc(F)ccc2/C1=C\c1ccc([S+](C)[O-])cc1 (stereo not shown) [sulindac]
- cysts volume ([5]; nonselective COX inhibition): decrease cysts volume

Second part, led by results:

- IC50 ([1]; 2 h, 37 °C): 504 µM
- IC50 [2, 7]: > 1000 µM
- IC50 [4]: 464 µM
SMILES: COc1ccc2cc([C@H](C)C(=O)O)ccc2c1 [naproxen, naproxen sodium]

- effect on KAT II activity ([1]; 1 μM-1 mM drug): not shown to inhibit KAT II activity
- effect on KAT I activity [2]: did not affect the activity of KAT I
SMILES: CC(=O)Nc1ccc(O)cc1 [acetaminophen]
- effect on KYNA production ([4]; 1 μM-1 mM drug): did not change KYNA production

- IC50 ([1]; 2 h, 37 °C): 155 µM
- IC50 ([2]; pH 9.5, 2 h, 37 °C): 310 µM
- IC50 [4, 8]: > 1000 µM
SMILES: Cc1cnc(NC(=O)C2=C(O)c3ccccc3S(=O)(=O)N2C)s1 [meloxicam, meloxicam sodium salt hydrate]
- KYNA content in the rat brain [3]: Decreased KYNA content

- IC50 [1, 8]: > 1000 µM
- IC50 [2, 7]: > 1000 µM
SMILES: CN1C(C(=O)Nc2ccccn2)=C(O)c2ccccc2S1(=O)=O [piroxicam]

- IC50 ([1]; 2 h, 37 °C): 191 µM
- IC50 [2, 7]: > 1000 µM
- IC50 [4]: 230 µM
SMILES: O=C(O)Cc1ccccc1Nc1c(Cl)cccc1Cl [diclofenac, diclofenac sodium salt]
- KYNA content in the rat brain [3]: elevated KYNA levels
- KYNA concentration in the rat brain ([3]; following tail ischemia): increased KYNA concentration
- decrease of KYNA synthesis ([4]; concentration not given): 64%

- IC50 [1, 8]: > 1000 µM
- IC50 ([2]; pH 9.5, 2 h, 37 °C): 128 µM
- IC50 [4]: 473 µM
SMILES: CS(=O)(=O)Nc1ccc([N+](=O)[O-])cc1Oc1ccccc1 [nimesulide]
